Reference: US20240368174A1, “Antiviral Heterocyclic Compounds” (Enanta Pharmaceuticals, Inc., priority 2023, published 2024)

Each compound was assayed on genotype A, “Long” strain RSV (assay: RSV-A assay (CPE, ATPlite readout in Hep-2 cells)). Details: activity class.
Format: cell-based, Human respiratory syncytial virus
Source text: Hep-2 cells, (originally derived from tumors grown in irradiated-cortisonised weanling rats that had been injected with epidermoid carcinoma tissue from the larynx of a person, but later found to be indistinguishable from HeLa cells by PCR DNA analysis), were used for the culturing of genotype A, “Long” strain RSV. Flasks were inoculated with RSV and viral stocks were collected once cytopathic effect (CPE) was greater than 90%. Viral stocks in 25% sucrose media were snap frozen using liquid nitrogen to increase viral stability. Viral stock titers were quantified by tissue culture infectious dose 50% (TCID50) using 8,000 cells per well and 3-fold viral dilutions across a 96-well plate, cultured for 4 days. Viral stock titers were also quantified by a plaque forming unit assay, as described elsewhere.
Following extensive parameter testing, the final assay is run as follows: Hep-2 cells are seeded into the inner 60 wells of a 96-well plate at 8,000 cells per well in a volume of 50 μL using Growth Media (DMEM without phenol red, 1% L-Glut, 1% Penn/Strep, 1% nonessential amino acids, 10% heat-inactivated FBS). 2-fold serial dilutions of control and test compounds are added to the wells in duplicate in a total volume of 25 μL. Viral stock is then added to the wells at a multiplicity of infection (MOI) of 0.1 in a volume of 25 μL, bringing the total volume of each well to 100 μL. The MOI is calculated using the PFU/mL, or TCID50 if unavailable. Each 96-well plate has a control column of 6 wells with cells and virus but no compound (negative control, max CPE), a column with cells but no compound or virus (positive control, minimum CPE), and a column with no cells or virus or compound (background plate/reagent control). The control wells with cells but no virus are given an additional 25 μL of growth media containing an equal quantity of sucrose as those wells receiving the viral stock in order to keep consistent in media and volume conditions. The outer wells of the plate are filled with 125 μL of moat media (DMEM, 1% Penn/Strep) to act as a thermal and evaporative moat around the test wells. Following a 5-day incubation period, the plates are read using ATPlite (50 uL added per well), which quantifies the amount of ATP (a measure of cell health) present in each well. Assay plates are read using the Envision luminometer. […] EC50 ranges are as follows: A<0.2 μM; B>0.2 μM.

Row | EC50 [nM] | SMILES
1 | < 200 | COc1cc(C(=O)NC[C@](O)(c2cc3c(c(-c4ccnc(Cl)c4Cl)n2)OC[C@]3(C)C(N)=O)C2CC2)cc2cn(C(F)F)nc12 [Example 732]

Same assay, conditions: human respiratory syncytial virus, activity class

Row | SMILES | EC50 [nM]
2 | COc1cc(C(=O)NC[C@](O)(c2cc3c(c(-c4ccn(C)c(=O)c4Cl)n2)OC[C@]3(C)C(N)=O)C2CC2)cc2cn(C3CC3)nc12 [Example 423] | > 200
3 | COc1cc(C(=O)NC[C@](O)(c2cc3c(c(-c4cc[nH]c(=O)c4Cl)n2)OC[C@]3(C)C(N)=O)C2CC2)cc2cn(C3CC3)nc12 [Example 436] | > 200
4 | COc1cc(C(=O)NC[C@](O)(c2cc3c(c(-c4ccnc(C)c4Cl)n2)OC[C@]3(C)C(N)=O)C2CC2)cn2cc(C3CC3)nc12 [Example 672] | < 200
5 | COc1cc(C(=O)NC[C@](O)(c2cc3c(c(-c4ccnc(C)c4Cl)n2)OC[C@]3(C)C(N)=O)C2CC2)cc2cc(C3CC3)nn12 [Example 673] | < 200
6 | Cc1nccc(-c2nc([C@@](O)(CNC(=O)c3cc(Cl)c4nn(C5CC5)cc4c3)C3CC3)cc3c2OC[C@]3(C)C(N)=O)c1Cl [Example 674] | < 200
7 | COc1cc(C(=O)NC[C@](O)(c2cc3c(c(-c4ccnc(C)c4Cl)n2)OC[C@]3(C)C(N)=O)C2CC2)cc2cc(Cl)c(C)nc12 [Example 675] | < 200
8 | C[C@]1(C(N)=O)COc2c1cc([C@@](O)(CNC(=O)c1cc(OCCO)c3nn(C4CC4)cc3c1)C1CC1)nc2-c1ccc(F)c(F)c1Cl [Example 676] | < 200
9 | C[C@]1(C(N)=O)COc2c1cc([C@@](O)(CNC(=O)c1cc(OCCO)c3nn(C4CC4)cc3c1)C1CC1)nc2-c1ccc(F)c(Cl)c1Cl [Example 677] | < 200
10 | COc1cc(C(=O)NC[C@](O)(c2cc3c(c(-n4ccc5c(F)cccc54)n2)OC[C@]3(C)C(N)=O)C(F)(F)F)cc2cn(C(F)F)nc12 [Example 684] | < 200
11 | COc1cc(C(=O)NC[C@](O)(c2cc3c(c(-n4ccc5c(F)cccc54)n2)OC[C@]3(C)C(N)=O)C(F)(F)F)cc2cc(C3CC3)nn12 [Example 686] | < 200
12 | COc1cc(C(=O)NC[C@](O)(c2cc3c(c(-n4ccc5ccccc54)n2)OC[C@]3(C)C(N)=O)C2(F)CC2)cc2cn(C3CC3)nc12 [Example 716] | < 200
13 | COc1cc(C(=O)NC[C@@](O)(c2cc3c(c(-c4ccnc(Cl)c4Cl)n2)OC[C@]3(C)C(N)=O)C2CC2)cc2cn(C(F)F)nc12 [Example 733] | < 200
14 | COc1cc(C(=O)NC[C@](O)(c2cc3c(c(-c4cncc(Cl)c4Cl)n2)OC[C@]3(C)C(N)=O)C2CC2)cc2cn(C3CC3)nc12 [Example 740] | < 200
15 | COc1cc(C(=O)NC[C@](O)(c2cc3c(c(-n4ccc5ccccc54)n2)OC[C@]3(C)C(N)=O)C2CC2)cc2cn(C3(F)CC3)nc12 [Example 741] | < 200
16 | COc1cc(C(=O)NC[C@](O)(c2cc3c(c(-n4ccc5ccccc54)n2)OC[C@]3(C)C(N)=O)C2CC2)cc2oc(C3CC3)nc12 [Example 748] | < 200
17 | COc1cc(C(=O)NC[C@](O)(c2cc3c(c(-c4ccnc(C)c4Cl)n2)OC[C@]3(C)C(N)=O)C2CC2)cc2cn(C(F)F)nc12 [Example 753] | < 200
18 | COc1cc(C(=O)NC[C@](O)(c2cc3c(c(-c4ccnc(C)c4Cl)n2)OC[C@]3(C)C(N)=O)C2CC2)cc2cn(C3(F)CC3)nc12 [Example 754] | < 200
19 | COc1cc(C(=O)NC[C@](O)(c2cc3c(c(-c4ccnc(C)c4Cl)n2)OC[C@]3(C)C(N)=O)C2CC2)cc2oc(C3CC3)nc12 [Example 755] | < 200
20 | COc1cc(C(=O)NC[C@](O)(c2cc3c(c(-c4cncc(Cl)c4Cl)n2)OC[C@]3(C)C(N)=O)C2CC2)cc2cn(C(F)F)nc12 [Example 772] | < 200
21 | COc1cc(C(=O)NC[C@](O)(c2cc3c(c(-c4cncc(Cl)c4Cl)n2)OC[C@]3(C)C(N)=O)C2CC2)cc2cn(C3(F)CC3)nc12 [Example 773] | < 200
22 | COc1cc(C(=O)NC[C@](O)(c2cc3c(c(-c4cncc(Cl)c4Cl)n2)OC[C@]3(C)C(N)=O)C2CC2)cc2oc(C3CC3)nc12 [Example 774] | < 200
23 | COc1cc(C(=O)NC[C@](O)(c2cc3c(c(-c4ccnc(C(F)(F)F)c4Cl)n2)OC[C@]3(C)C(N)=O)C2(F)CC2)cc2cn(C3CC3)nc12 [Example 784] | < 200
24 | COc1cc(C(=O)NC[C@](O)(c2cc3c(c(-n4ncc5c(F)cccc54)n2)OC[C@]3(C)C(N)=O)C(F)(F)F)cc2cn(C3CC3)nc12 [Example 830] | < 200

The next lines start with the values.

Row | EC50 [nM] | SMILES
25 | < 200 | COc1cc(C(=O)NC[C@](O)(c2cc3c(c(-c4cc(C(F)(F)F)ncc4F)n2)OC[C@]3(C)C(N)=O)C(F)(F)F)cc2cn(C(F)F)nc12 [Example 424]
26 | < 200 | COc1cc(C(=O)NC[C@](O)(c2cc3c(c(-c4cc(C(F)(F)F)ncc4F)n2)OC[C@]3(C)C(N)=O)C(F)(F)F)cc2cn(C3CC3)nc12 [Example 425]
27 | < 200 | COc1cc(C(=O)NC[C@](O)(c2cc3c(c(-c4ccnc(C)c4Cl)n2)OC[C@]3(C)C(N)=O)C2CC2)cc2cn(C3CC3)nc12 [Example 426]
28 | < 200 | COc1cc(C(=O)NC[C@](O)(c2cc3c(c(-c4cc(C(F)F)ncc4Cl)n2)OC[C@]3(C)C(N)=O)C2CC2)cc2cn(C3CC3)nc12 [Example 437]
29 | < 200 | COc1cc(C(=O)NC[C@](O)(c2cc3c(c(-c4ccnc(OC(F)F)c4Cl)n2)OC[C@]3(C)C(N)=O)C2CC2)cc2cn(C3CC3)nc12 [Example 438]
30 | < 200 | COc1cc(C(=O)NC[C@](O)(c2cc3c(c(-c4cccc(OC(F)F)c4Cl)n2)OC[C@]3(C)C(N)=O)C2CC2)cc2cn(C3CC3)nc12 [Example 439]
31 | < 200 | COc1cc(C(=O)NC[C@](O)(c2cc3c(c(-c4cccc(OC(F)(F)F)c4Cl)n2)OC[C@]3(C)C(N)=O)C2CC2)cc2cn(C3CC3)nc12 [Example 440]
32 | < 200 | COc1cc(C(=O)NC[C@](O)(c2cc3c(c(-c4ccnc(Cl)c4Cl)n2)OC[C@]3(C)C(N)=O)C2CC2)cc2cn(C3(F)CC3)nc12 [Example 441]
33 | < 200 | COc1cc(C(=O)NC[C@](O)(c2cc3c(c(-n4ccc5ccccc54)n2)OC[C@]3(C)C(N)=O)C2CC2)cc2cn(C(F)F)nc12 [Example 445]
34 | < 200 | COc1cc(C(=O)NC[C@](O)(c2cc3c(c(-n4nnc5ccccc54)n2)OC[C@]3(C)C(N)=O)C2CC2)cc2cn(C3CC3)nc12 [Example 450]
35 | < 200 | COc1cc(C(=O)NC[C@](O)(c2cc3c(c(-n4nc(Cl)c5ccccc54)n2)OC[C@]3(C)C(N)=O)C2CC2)cc2cn(C3CC3)nc12 [Example 451]
36 | < 200 | COc1cc(C(=O)NC[C@](O)(c2cc3c(c(-n4ccc5c(F)cccc54)n2)OC[C@]3(C)C(N)=O)C2CC2)cc2cn(C3CC3)nc12 [Example 452]
37 | < 200 | COc1cc(C(=O)NC[C@](O)(c2cc3c(c(-n4ccc5cc(F)ccc54)n2)OC[C@]3(C)C(N)=O)C2CC2)cc2cn(C3CC3)nc12 [Example 453]
38 | < 200 | COc1cc(C(=O)NC[C@](O)(c2cc3c(c(-n4ccc5ccc(F)cc54)n2)OC[C@]3(C)C(N)=O)C2CC2)cc2cn(C3CC3)nc12 [Example 454]
39 | < 200 | COc1cc(C(=O)NC[C@](O)(c2cc3c(c(-n4ccc5cccc(F)c54)n2)OC[C@]3(C)C(N)=O)C2CC2)cc2cn(C3CC3)nc12 [Example 455]
40 | < 200 | COc1cc(C(=O)NC[C@](O)(c2cc3c(c(-c4cc(C(F)(F)F)ncc4F)n2)OC[C@]3(C)C(N)=O)C2(F)CC2)cc2cn(C3CC3)nc12 [Example 458]
41 | < 200 | COc1cc(C(=O)NC[C@](O)(c2cc3c(c(-c4cc(C(F)(F)F)ncc4F)n2)OC[C@]3(C)C(N)=O)C2(F)CC2)cc2cn(C3(F)CC3)nc12 [Example 459]
42 | < 200 | COc1cc(C(=O)NC[C@](O)(c2cc3c(c(-c4cc(C(F)(F)F)ncc4F)n2)OC[C@]3(C)C(N)=O)C2(F)CC2)cc2cn(C(F)F)nc12 [Example 460]
43 | < 200 | COc1cc(C(=O)NC[C@](O)(c2cc3c(c(-c4cc(C(F)(F)F)ncc4F)n2)OC[C@]3(C)C(N)=O)C2(F)CC2)cn2cc(C3CC3)nc12 [Example 461]
44 | < 200 | COc1cc(C(=O)NC[C@](O)(c2cc3c(c(-c4cc(C(F)(F)F)ncc4F)n2)OC[C@]3(C)C(N)=O)C2(F)CC2)cc2cc(C3CC3)nn12 [Example 462]
45 | < 200 | COc1cc(C(=O)NC[C@@](O)(c2cc(F)nc(F)c2)c2cc3c(c(-c4cccc(Cl)c4Cl)n2)OC[C@]3(C)C(N)=O)cc2cn(C3CC3)nc12 [Example 575]
46 | < 200 | COc1cc(C(=O)NC[C@](O)(c2cc3c(c(-c4cccc(F)c4Cl)n2)OC[C@]3(C)C(N)=O)C2CC2)cc2cn(C(F)F)nc12 [Example 614]
47 | < 200 | COc1cc(C(=O)NC[C@](O)(c2cc3c(c(-c4cccc(F)c4Cl)n2)OC[C@]3(C)C(N)=O)C2CC2)cc2oc(C3CC3)nc12 [Example 616]
